# Measurements: patent publication US11446287B2, “Compounds and methods for EP300 or CBP modulation and indications therefor” (Opna Immuno-Oncology SA, priority 2019, dated 2022)
# Biological target: T1, Recombinant human BRD4 containing dual bromodomains (BRD4-BD12 (1-477)) (Homo sapiens, UniProt O60885)
# T1 construct: Recombinant human BRD4 containing dual bromodomains (BRD4-BD12 (1-477)); made in house; host or cells: E. coli BL21-CodonPlus (DE3), modified pET vector
# Test: BRD4 Alphascreen binding assay
# Method in brief: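 AlphaScreen proximity between Ni-chelate-bound BRD4-BD12 (1-477) and streptavidin-captured H4 K5/K8/K12/K16-acetyl peptide measured after 1 h room-temperature compound incubation and 30 min with 7.5 μg/ml beads. Buffer: 50 mM HEPES pH 7.5, 50 mM NaCl, 0.01% BSA, 0.01% Triton X-100; data plate-normalized and four-parameter fit for IC50.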
row,SMILES,IC50 [µM]
1,"COc1cc(C(=O)O)ccc1-c1cn([C@@H](C)c2ccccn2)c2ncc(-c3c(C)noc3C)cc12 [P-0047, (S)-4-(5-(3,5-dimethylisoxazol-4-yl)-1-(1-(pyridin-2-yl)ethyl)-1H-pyrrolo[2,3-b]pyridin-3-yl)-3-methoxybenzoic acid]",1 to 8
2,"CCOc1cc(C(=O)O)ncc1-c1cn(C2CCOCC2)c2ncc(-c3c(C)noc3C)cc12 [P-0428, 5-(5-(3,5-dimethylisoxazol-4-yl)-1-(tetrahydro-2H-pyran-4-yl)-1H-pyrrolo[2,3-b]pyridin-3-yl)-4-ethoxypicolinic acid]",0.0001 to 1
3,"CCOc1cc(C(=O)O)nc(OCC)c1-c1cn(C2CCN(C(=O)OC(C)(C)C)CC2)c2ncc(-c3c(C)noc3C)cc12 [P-0433, 5-(1-(1-(tert-butoxycarbonyl)piperidin-4-yl)-5-(3,5-dimethylisoxazol-4-yl)-1H-pyrrolo[2,3-b]pyridin-3-yl)-4,6-diethoxypicolinic acid]",8 to 1000
4,"CCc1onc(C)c1-c1cnc2c(c1)c(-c1c(Cl)cc(C(=O)O)cc1OC(F)(F)F)cn2-c1ccc(C2CC2)nc1 [P-0448, 3-chloro-4-(1-(6-cyclopropylpyridin-3-yl)-5-(5-ethyl-3-methylisoxazol-4-yl)-1H-pyrrolo[2,3-b]pyridin-3-yl)-5-(trifluoromethoxy)benzoic acid]",1 to 8
5,"Cc1noc(C)c1-c1cnc2c(c1)c(-c1ccc(C(=O)O)c(Cl)c1)cn2C(c1ccccn1)C1CCCC1 (stereo not drawn) [P-0038, 2-chloro-4-(1-(cyclopentyl(pyridin-2-yl)methyl)-5-(3,5-dimethylisoxazol-4-yl)-1H-pyrrolo[2,3-b]pyridin-3-yl)benzoic acid]",1 to 8
6,"Cc1noc(C)c1-c1cnc2c(c1)c(-c1c(Cl)cc(C(=O)O)cc1OC(C)C)cn2C1(C)CCOC1 (stereo not drawn) [P-0408, 3-chloro-4-(5-(3,5-dimethylisoxazol-4-yl)-1-(3-methyltetrahydrofuran-3-yl)-1H-pyrrolo[2,3-b]pyridin-3-yl)-5-isopropoxybenzoic acid]",8 to 1000
7,"Cc1noc(C)c1-c1cnc2c(c1)c(-c1c(Cl)cc(C(=O)O)cc1OC1CC1)cn2-c1ncccc1C#N [P-0409, 3-chloro-4-(1-(3-cyanopyridin-2-yl)-5-(3,5-dimethylisoxazol-4-yl)-1H-pyrrolo[2,3-b]pyridin-3-yl)-5-cyclopropoxybenzoic acid]",1 to 8
8,"CCOc1cc(C(=O)O)c(F)cc1-c1cn(C2CCN(C(=O)CO)CC2)c2ncc(-c3c(C)noc3C)cc12 [P-0447, 4-(5-(3,5-dimethylisoxazol-4-yl)-1-(1-(2-hydroxyacetyl)piperidin-4-yl)-1H-pyrrolo[2,3-b]pyridin-3-yl)-5-ethoxy-2-fluorobenzoic acid]",8 to 1000
9,"COC(=O)c1cc(-n2cc(Cc3ccccc3)c3ncc(-c4c(C)noc4C)cc32)ccn1 [P-0052, methyl 4-(3-benzyl-6-(3,5-dimethylisoxazol-4-yl)-1H-pyrrolo[3,2-b]pyridin-1-yl)picolinate]",1 to 8
10,"Cc1noc(C)c1-c1cnc2c(c1)c(-c1c(F)cc(C(=O)O)cc1OC1CC1)cn2C(C1CC1)C1CC1 [P-0394, 3-cyclopropoxy-4-(1-(dicyclopropylmethyl)-5-(3,5-dimethylisoxazol-4-yl)-1H-pyrrolo[2,3-b]pyridin-3-yl)-5-fluorobenzoic acid]",1 to 8
11,"CCOc1nc(C(=O)O)c(C)cc1-c1cn(C(C2CC2)C2CC2)c2ncc(-c3c(C)noc3C)cc12 [P-0416, 5-(1-(dicyclopropylmethyl)-5-(3,5-dimethylisoxazol-4-yl)-1H-pyrrolo[2,3-b]pyridin-3-yl)-6-ethoxy-3-methylpicolinic acid]",8 to 1000
12,"CCOc1cc(C(=O)O)nc(OCC)c1-c1cn(-c2ncccc2C#N)c2ncc(-c3c(C)noc3C)cc12 [P-0421, 5-(1-(3-cyanopyridin-2-yl)-5-(3,5-dimethylisoxazol-4-yl)-1H-pyrrolo[2,3-b]pyridin-3-yl)-4,6-diethoxypicolinic acid]",8 to 1000
13,"Cc1nnn(C)c1-c1cnc2c(c1)c(-c1ccc(C(=O)O)cc1OC1CC1)cn2C1CCOCC1 [P-0413, 3-cyclopropoxy-4-(5-(1,4-dimethyl-1H-1,2,3-triazol-5-yl)-1-(tetrahydro-2H-pyran-4-yl)-1H-pyrrolo[2,3-b]pyridin-3-yl)benzoic acid]",1 to 8
14,"Cc1noc(C)c1-c1cnc2c(c1)c(-c1c(Cl)cc(C(=O)O)cc1OC1CCC1)cn2-c1ncccc1C#N [P-0396, 3-chloro-4-(1-(3-cyanopyridin-2-yl)-5-(3,5-dimethylisoxazol-4-yl)-1H-pyrrolo[2,3-b]pyridin-3-yl)-5-cyclobutoxybenzoic acid]",1 to 8
15,"Cc1noc(C)c1-c1cnc2c(c1)c(-c1cc(F)c(C(=O)O)cc1OC(F)(F)F)cn2-c1ccc(C2CC2)nc1 [P-0444, 4-(1-(6-cyclopropylpyridin-3-yl)-5-(3,5-dimethylisoxazol-4-yl)-1H-pyrrolo[2,3-b]pyridin-3-yl)-2-fluoro-5-(trifluoromethoxy)benzoic acid]",1 to 8
16,"Cc1noc(C)c1-c1cnc2c(c1)c(C#CC(C)(C)C(=O)O)cn2Cc1ccccc1 [P-0051, 4-(1-benzyl-5-(3,5-dimethylisoxazol-4-yl)-1H-pyrrolo[2,3-b]pyridin-3-yl)-2,2-dimethylbut-3-ynoic acid]",8 to 1000
17,"Cc1noc(C)c1-c1cnc2c(c1)c(-c1ccnc(C(=O)O)c1)cn2Cc1ccccc1 [P-0042, 4-(1-benzyl-5-(3,5-dimethylisoxazol-4-yl)-1H-pyrrolo[2,3-b]pyridin-3-yl)picolinic acid]",0.0001 to 1
18,"COc1ncc(-n2cc(-c3ccc(C(=O)O)cc3OC(F)(F)F)c3cc(-c4c(C)noc4C)cnc32)cn1 [P-0392, 4-(5-(3,5-dimethylisoxazol-4-yl)-1-(2-methoxypyrimidin-5-yl)-1H-pyrrolo[2,3-b]pyridin-3-yl)-3-(trifluoromethoxy)benzoic acid]",1 to 8
